Experimental data published in patent US7015236B2, “N-heteroarylnicotinamide derivatives” (Sankyo Agro Company, Limited, priority 2001, dated 2006).
Read-outs that look alike come from different tables or passages of the source.

Tested on: green peach aphid (Myzus persicae)
Test: Insecticidal test for green peach aphid (100 ppm), Test Example 1
Assay type: in vivo
Settings: 120 h
Procedure: Insecticidal test for green peach aphid (Myzus persicae) (100 ppm)
Water (30 ml) was put into a beaker, and a leaf of Komatsuna (Brassica var. rapa) was placed within the beaker such that the stem was immersed in water. On the leaf of Komatsuna, five green peach aphids were released and allowed to fertilize. Two days after the releasing, imagoes were removed and the number of larvae was counted.
A surfactant Newcol NE-710F (trademark, produced by Nippon Nyukazai Co., Ltd., 2%) was dissolved in aqueous acetone (95% aqueous solution, 98%) to prepare solution 1. Next, a dispersant Gousenol GLO5-S (trademark, produced by Nippon Nyukazai Co., Ltd., 0.2% aqueous solution, 0.2%) was dissolved in water (99.8%) to prepare solution 2.
To each of the compounds (8 mg) of the present invention, the above solution 1 (0.4 ml), the above solution 2 (0.4 ml) and water (8 ml) were added. Further, the compounds of the present invention were each diluted with water so that the concentration of each compound was 100 ppm {as a spreading agent, Gramin S (trademark, produced by Sankyo Co., Ltd.) was added so as to have a concentration of 0.01%}.
The above chemical liquid (8 ml) was sprayed on the leaf of Komatsuna by use of a rotary spraying tower. The leaf of Komatsuna was put back in the beaker. Then, the beaker was placed in a thermostatic chamber of 25° C. for 16 hours in the light and for 8 hours in the dark. 5 Days after the spraying, the number of dead insects was counted to calculate the mortality (%).

[1] = 100 ppm spray on Komatsuna leaf, larvae, counted 5 days after spraying, 25° C., read-out: mortality (%)

| SMILES | mortality at 100 ppm [1] [%] | mortality at 100 ppm [%] |
| --- | --- | --- |
| CCOCN(C(=O)c1cnccc1C(F)(F)F)c1cc(C)no1 [Example 2, N-Ethoxymethyl-N-(3-methyl-5-isoxazolyl)-4-(trifluoromethyl)nicotinamide] | ≥ 95 | – |
| Cc1noc(NC(=O)c2cnccc2C(F)(F)F)c1Cl [Example 3, N-(4-Chloro-3-methyl-5-isoxazolyl)-4-(trifluoromethyl)nicotinamide] | ≥ 95 | – |
| CCc1cc(NC(=O)c2cnccc2C(F)(F)F)on1 [Example 5, N-(3-Ethyl-5-isoxazolyl)-4-(trifluoromethyl)nicotinamide] | ≥ 95 | – |
| CC(C)c1cc(NC(=O)c2cnccc2C(F)(F)F)on1 [Example 6, N-(3-Isopropyl-5-isoxazolyl)-4-(trifluoromethyl)nicotinamide] | ≥ 95 | – |
| O=Cc1cc(NC(=O)c2cnccc2C(F)(F)F)on1 [Example 7, N-(3-Formyl-5-isoxazolyl)-4-(trifluoromethyl)nicotinamide] | ≥ 95 | – |
| O=C(Nc1cc(C=NO)no1)c1cnccc1C(F)(F)F [Example 8, N-(3-Hydroxyiminomethyl-5-isoxazolyl)-4-(trifluoromethyl)nicotinamide] | – | ≥ 95 |
| N#Cc1cc(NC(=O)c2cnccc2C(F)(F)F)on1 [Example 9, N-(3-Cyano-5-isoxazolyl)-4-(trifluoromethyl)nicotinamide] | ≥ 95 | – |
| COCc1cc(NC(=O)c2cnccc2C(F)(F)F)on1 [Example 10, N-(3-Methoxymethyl-5-isoxazolyl)-4-(trifluoromethyl)nicotinamide] | ≥ 95 | – |
| O=C(Nc1oncc1Cl)c1cnccc1C(F)(F)F [Example 11, N-(4-Chloro-5-isoxazolyl)-4-(trifluoromethyl)nicotinamide] | ≥ 95 | – |
| O=C(Nc1onc(C2CC2)c1Cl)c1cnccc1C(F)(F)F [Example 12, N-(4-Chloro-3-cyclopropyl-5-isoxazolyl)-4-(trifluoromethyl)nicotinamide] | ≥ 95 | – |
| COCc1noc(NC(=O)c2cnccc2C(F)(F)F)c1Cl [Example 13, N-(4-Chloro-3-methoxymethyl-5-isoxazolyl)-4-(trifluoromethyl)nicotinamide] | ≥ 95 | – |
| Cc1noc(NC(=O)c2cnccc2C(F)(F)F)c1Br [Example 14, N-(4-Bromo-3-methyl-5-isoxazolyl)-4-(trifluoromethyl)nicotinamide] | ≥ 95 | – |
| Cc1cc(N(C)C(=O)c2cnccc2C(F)(F)F)on1 [Example 16, N-Methyl-N-(3-methyl-5-isoxazolyl)-4-(trifluoromethyl)nicotinamide] | ≥ 95 | – |
| Cc1cc(N(CC#N)C(=O)c2cnccc2C(F)(F)F)on1 [Example 19, N-Cyanomethyl-N-(3-methyl-5-isoxazolyl)-4-(trifluoromethyl)nicotinamide] | ≥ 95 | – |
| CSCN(C(=O)c1cnccc1C(F)(F)F)c1cc(C)no1 [Example 20, N-(3-Methyl-5-isoxazolyl)-N-methylthiomethyl-4-(trifluoromethyl)nicotinamide] | ≥ 95 | – |
| Cc1noc(NC(=O)c2cnccc2C(F)(F)F)n1 [Example 21, N-(3-Methyl-[1,2,4]oxadiazol-5-yl)-4-(trifluoromethyl)nicotinamide] | ≥ 95 | – |
| N#Cc1noc(NC(=O)c2cnccc2C(F)(F)F)c1Cl [Example 22, N-(4-Chloro-3-cyano-5-isoxazolyl)-4-(trifluoromethyl)nicotinamide] | ≥ 95 | – |
| N#Cc1noc(NC(=O)c2cnccc2C(F)(F)F)c1F [Example 23, N-(4-Fluoro-3-cyano-5-isoxazolyl)-4-(trifluoromethyl)nicotinamide] | ≥ 95 | – |
| O=C(Nc1oncc1Br)c1cnccc1C(F)(F)F [Example 24, N-(4-Bromo-5-isoxazolyl)-4-(trifluoromethyl)nicotinamide] | ≥ 95 | – |
| CCOC(OCC)c1cc(NC(=O)c2cnccc2C(F)(F)F)on1 [Example 26, N-(3-Diethoxymethyl-5-isoxazolyl)-4-(trifluoromethyl)nicotinamide] | ≥ 95 | – |
| CC(=O)N(C(=O)c1cnccc1C(F)(F)F)c1cc(C)no1 [Example 27, N-Acetyl-N-(3-methyl-5-isoxazolyl)-4-(trifluoromethyl)nicotinamide] | ≥ 95 | – |
| CON=Cc1cc(NC(=O)c2cnccc2C(F)(F)F)on1 [Example 28, N-(3-Methoxyiminomethyl-5-isoxazolyl)-4-(trifluoromethyl)nicotinamide] | ≥ 95 | – |
| CCOC(=O)c1cc(NC(=O)c2cnccc2C(F)(F)F)on1 [Example 29, N-(3-Ethoxycarbonyl-5-isoxazolyl)-4-(trifluoromethyl)nicotinamide] | ≥ 95 | – |

| SMILES | mortality at 100 ppm [1] [%] | mortality at 100 ppm [%] |
| --- | --- | --- |
| O=C(c1cnccc1C(F)(F)F)N(C(=O)c1cnccc1C(F)(F)F)c1ccno1 [Example 30, 5-[N,N-Bis(4-trifluoromethylnicotinoyl)]aminoisoxazole] | ≥ 95 | – |
| Cc1noc(NC(=O)c2cnccc2C(F)(F)F)c1C [Example 33, N-(3,4-Dimethyl-5-isoxazolyl)-4-(trifluoromethyl)nicotinamide] | ≥ 95 | – |
| CCc1cnoc1NC(=O)c1cnccc1C(F)(F)F [Example 34, N-(4-Ethyl-5-isoxazolyl)-4-(trifluoromethyl)nicotinamide] | ≥ 95 | – |
| CCCc1cnoc1NC(=O)c1cnccc1C(F)(F)F [Example 35, N-(4-Propyl-5-isoxazolyl)-4-(trifluoromethyl)nicotinamide] | ≥ 95 | – |
| CC(C)c1cnoc1NC(=O)c1cnccc1C(F)(F)F [Example 36, N-(4-Isopropyl-5-isoxazolyl)-4-(trifluoromethyl)nicotinamide] | ≥ 95 | – |
| O=C(Nc1oncc1C1CC1)c1cnccc1C(F)(F)F [Example 37, N-(4-Cyclopropyl-5-isoxazolyl)-4-(trifluoromethyl)nicotinamide] | ≥ 95 | – |
| C=CCc1cnoc1NC(=O)c1cnccc1C(F)(F)F [Example 38, N-(4-Allyl-5-isoxazolyl)-4-(trifluoromethyl)nicotinamide] | ≥ 95 | – |
| CCCCc1cnoc1NC(=O)c1cnccc1C(F)(F)F [Example 39, N-(4-Butyl-5-isoxazolyl)-4-(trifluoromethyl)nicotinamide] | ≥ 95 | – |
| CC(C)Cc1cnoc1NC(=O)c1cnccc1C(F)(F)F [Example 40, N-(4-Isobutyl-5-isoxazolyl)-4-(trifluoromethyl)nicotinamide] | ≥ 95 | – |
| O=C(Nc1oncc1C1CCC1)c1cnccc1C(F)(F)F [Example 41, N-(4-Cyclobutyl-5-isoxazolyl)-4-(trifluoromethyl)nicotinamide] | ≥ 95 | – |
| O=C(Nc1oncc1C1CCCC1)c1cnccc1C(F)(F)F [Example 42, N-(4-Cyclopentyl-5-isoxazolyl)-4-(trifluoromethyl)nicotinamide] | ≥ 95 | – |
| CCCCCCc1cnoc1NC(=O)c1cnccc1C(F)(F)F [Example 43, N-(4-Hexyl-5-isoxazolyl)-4-(trifluoromethyl)nicotinamide] | ≥ 95 | – |
| CCCCCCc1cnoc1N(C(=O)c1cnccc1C(F)(F)F)C(=O)c1cnccc1C(F)(F)F [Example 44, 5-[N,N-Bis(4-trifluoromethylnicotinoyl)]amino-4-hexylisoxazole] | ≥ 95 | – |
| O=C(Nc1oncc1Cc1ccccc1)c1cnccc1C(F)(F)F [Example 45, N-(4-Benzyl-5-isoxazolyl)-4-(trifluoromethyl)nicotinamide] | ≥ 95 | – |
| O=C(Nc1oncc1CCc1ccccc1)c1cnccc1C(F)(F)F [Example 46, N-(4-Phenylethyl-5-isoxazolyl)-4-(trifluoromethyl)nicotinamide] | ≥ 95 | – |
| COc1cnoc1NC(=O)c1cnccc1C(F)(F)F [Example 47, N-(4-Methoxy-5-isoxazolyl)-4-(trifluoromethyl)nicotinamide] | ≥ 95 | – |
| COCc1noc(NC(=O)c2cnccc2C(F)(F)F)c1OC [Example 48, N-(4-Methoxy-3-methoxymethyl-5-isoxazolyl)-4-(trifluoromethyl)nicotinamide] | ≥ 95 | – |
| CSc1cnoc1NC(=O)c1cnccc1C(F)(F)F [Example 49, N-(4-Methylthio-5-isoxazolyl)-4-(trifluoromethyl)nicotinamide] | ≥ 95 | – |
| Cc1cnsc1N(C(=O)c1cnccc1C(F)(F)F)C(=O)c1cnccc1C(F)(F)F [Example 50, 5-[N,N-Bis(4-trifluoromethylnicotinoyl)]amino-4-methylthioisoxazole] | ≥ 95 | – |
| O=C(Nc1oncc1Oc1ccccc1)c1cnccc1C(F)(F)F [Example 51, N-(4-Phenoxy-5-isoxazolyl)-4-(trifluoromethyl)nicotinamide] | ≥ 95 | – |
| O=C(c1cnccc1C(F)(F)F)N(C(=O)c1cnccc1C(F)(F)F)c1oncc1Oc1ccccc1 [Example 52, 5-[N,N-Bis(4-trifluoromethylnicotinoyl)]amino-4-phenoxyisoxazole] | ≥ 95 | – |
| O=C(Nc1oncc1-c1ccccc1)c1cnccc1C(F)(F)F [Example 53, N-(4-Phenyl-5-isoxazolyl)-4-(trifluoromethyl)nicotinamide] | ≥ 95 | – |
